# Legend:
# TrxR in HCT 116 cells = target: T1, TrxR in HCT 116 cells (Homo sapiens, UniProt Q16881); test: cellular TrxR activity in HCT 116 cell lysates (insulin reduction assay); format: cell-based; conditions: for cellular TrxR activity, HCT 116 cells: 10 h treatment, 20, 30, 40 and 50 μM
# T1 construct: Lysates of HCT 116 cells treated with indicated concentrations of selected SCA analogs for 10 h; endogenous in cells; host or cells: HCT 116
# T1 sequence (Q16881 1-499 isoform Q16881-5): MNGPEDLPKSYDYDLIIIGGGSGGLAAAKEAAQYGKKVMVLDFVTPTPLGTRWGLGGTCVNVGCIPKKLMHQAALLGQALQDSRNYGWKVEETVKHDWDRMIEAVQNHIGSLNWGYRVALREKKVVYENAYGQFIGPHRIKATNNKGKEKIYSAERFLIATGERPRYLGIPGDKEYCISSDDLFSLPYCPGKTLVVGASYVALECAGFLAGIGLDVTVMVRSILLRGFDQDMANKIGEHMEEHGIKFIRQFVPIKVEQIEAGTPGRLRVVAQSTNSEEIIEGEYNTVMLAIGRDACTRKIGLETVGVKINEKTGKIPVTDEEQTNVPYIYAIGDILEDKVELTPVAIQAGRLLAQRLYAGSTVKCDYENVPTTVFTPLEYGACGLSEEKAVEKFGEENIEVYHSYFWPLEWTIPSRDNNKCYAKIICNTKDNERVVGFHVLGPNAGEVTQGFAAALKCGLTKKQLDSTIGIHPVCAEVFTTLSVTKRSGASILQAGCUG
# Method: (§1) Cells were seeded onto 100 mm or 60 mm culture plates and upon reaching ~70% confluency, they were subjected to drug treatment for indicated durations. Pellets of compound-treated or DMSO control cells comprising both attached and floating cells were collected and lysed in lysis buffer (25 mM Tris-HCl pH 7.5, 100 mM NaCl, 2.5 mM EDTA, 2.5 mM EGTA, 20 mM NaF, 1 mM Na3VO4, 20 mM sodium β-glycerophosphate, 10 mM sodium pyrophosphate, 0.5% Triton X-100) with freshly added protease inhibitor cocktail (Roche Diagnostics). Prior to being used in Western blot analysis and/or cellular TrxR, GR, Trx and GPx activity determination, lysates were precleared by centrifugation and protein concentrations were determined using a modified Bradford assay (Bio-Rad Laboratories) as described in the manufacturer's manual. This procedure for collecting whole cell lysate was used for all experiments except for the Trx-redox state determination experiment. Equal amounts of protein (50 μg) in each lysate sample were separated by SDS-PAGE, followed by electroblotting onto nitrocellulose membranes. Electroblotted proteins on membranes were probed with a primary antibody and subsequently by a secondary antibody conjugated to HRP.
# (§2) Freshly collected cell lysates were used for measurement of activity of cellular Trx and TrxR. To measure TrxR activity, in each well of a 96-well plate, 25 μg of cell lysate was incubated in a final volume of 50 μl containing 85 mM Hepes (pH 7.6), 0.3 mM insulin, 10 μM rhTrx1, 2.5 mM EDTA and 660 μM NADPH for 40 min at 37°C. Controls containing lysates and all reaction reagents except rhTrx1 for each lysate sample were also set up. 200 μl of 1 mM DTNB in 6 M guanidine-HCl, 200 mM Tris-HCl pH 8.0 solution was added to quench the reaction. The amount of free thiols generated from insulin reduction was determined by DTNB reduction at 412 nm using the VersaMax microplate reader. To measure Trx activity, procedures were carried out similar to those for determining cellular TrxR activity, except that the cell lysates were incubated for 20 min with 300 nM recombinant rat TrxR in place of rhTrx1. Controls containing lysates and all reaction reagents except recombinant rat TrxR for each lysate sample were also set up. For each sample, Trx or TrxR activity was calculated as the absorbance at 412 nm subtracted from that of the corresponding control and expressed as a percentage of the activity measured in DMSO-treated cells.
# recombinant rat TrxR = target: T2, recombinant rat TrxR (Rattus norvegicus, UniProt O89049); test: in vitro TrxR DTNB reduction assay; format: biochemical; conditions: 30 min incubation, 100 nM recombinant rat TrxR, 200 μM NADPH, read-out: TrxR inhibition IC50
# T2 construct: made in house
# T2 sequence (O89049 1-499): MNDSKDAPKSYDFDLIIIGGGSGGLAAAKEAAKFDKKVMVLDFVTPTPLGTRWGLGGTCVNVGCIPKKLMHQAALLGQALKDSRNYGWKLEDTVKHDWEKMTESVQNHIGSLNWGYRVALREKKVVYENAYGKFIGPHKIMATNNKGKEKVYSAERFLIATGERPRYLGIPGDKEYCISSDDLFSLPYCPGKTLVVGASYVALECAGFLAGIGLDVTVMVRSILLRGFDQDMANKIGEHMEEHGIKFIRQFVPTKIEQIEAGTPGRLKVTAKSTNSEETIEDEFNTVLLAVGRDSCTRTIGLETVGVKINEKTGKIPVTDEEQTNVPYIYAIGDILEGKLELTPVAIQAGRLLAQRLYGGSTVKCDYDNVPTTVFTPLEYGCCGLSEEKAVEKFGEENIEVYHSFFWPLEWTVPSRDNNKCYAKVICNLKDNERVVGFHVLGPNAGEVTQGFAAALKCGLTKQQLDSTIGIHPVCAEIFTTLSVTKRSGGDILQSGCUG
# Method: In a volume of 100 μl of 50 mM Tris-HCl pH 7.5, 2 mM EDTA buffer (TE buffer), compounds of concentrations 1-100 μM were incubated with 100 nM recombinant rat TrxR and 200 μM NADPH at room temperature in 96-well plates for 30 and 60 min. The incubation was terminated by addition of 100 μl per well of 10 mM DTNB, 200 μM NADPH solution in TE buffer and immediately followed by measurement of linear increase of absorbance at 412 nm for the initial 2 min using the VersaMax microplate reader (Molecular Devices). The results were expressed as % of TrxR activity of drug-treated sample over that of DMSO control. The 50% inhibition concentration (IC50) values were calculated.
# Trx in HCT 116 cells = test: Trx redox state in cells (IAA alkylation, native PAGE); format: cell-based, human; conditions: 40 μM; 4, 8 and 14 h
# Method: The redox state of cellular Trx was assessed as previously described. HCT 116 cells were seeded in 60 mm plates and allowed to grow to 70% confluency. Compounds 4 or 5 were then added to the cells for 4, 8 or 14 h. Lysates were collected in lysis buffer (50 mM Tris-HCl pH 8.3, 2 mM EDTA, 6 M guanidine HCl, 0.5% Triton-X, 50 mM IAA). The lysates were incubated in the dark for 30 min at room temperature, sonicated briefly, and finally passed through a MicroSpin G-25 column (GE Healthcare) to remove guanidine and unreacted IAA. The desalted lysates were subjected to native PAGE, followed by transfer of separated proteins onto nitrocellulose membranes for Western blot analysis using anti-Trx antibody.
# TrxR in MCF-7 cells = target: T3, TrxR in MCF-7 cells (Homo sapiens, UniProt Q16881); test: cellular TrxR activity in MCF-7 cell lysates (insulin reduction assay); format: cell-based; conditions: for cellular TrxR activity, MCF-7 cells: 10 h treatment, 20, 30, 40 and 50 μM
# T3 construct: Lysates of MCF-7 cells treated with indicated concentrations of selected SCA analogs for 10 h; endogenous in cells; host or cells: MCF-7
# T3 sequence (Q16881 1-499 isoform Q16881-5): T1 sequence (Q16881 1-499 isoform Q16881-5)
# Method: as §1, §2
# [1] = 10 h treatment, 40 and 50 μM, p < 0.05 vs DMSO
SMILES,"cellular TrxR activity, HCT 116 cells (TrxR in HCT 116 cells)","cellular TrxR activity at 40 and 50 μM, HCT 116 cells (TrxR in HCT 116 cells; [1])",IC50 (recombinant rat TrxR) [µM],Trx oxidation in HCT 116 cells (Trx in HCT 116 cells),"cellular TrxR activity, MCF-7 cells (TrxR in MCF-7 cells)","cellular TrxR activity at 40 and 50 μM, MCF-7 cells (TrxR in MCF-7 cells; [1])"
CC(=O)/C=C1/C(=O)N(Cc2ccccc2)c2ccccc21 [Compound 5],decrease in TrxR activity in a dose-dependent manner,significant reduction,6.2 ± 1.7,time-dependent oxidation of Trx,decrease in TrxR activity in a dose-dependent manner,significant reduction
"CC(=O)C=C1C(=O)N(C)c2ccccc21 [Compound 1, 1-methyl-3(2-oxopropylidene)indolin-2-one]",did not cause apparent inhibition,,22.1 ± 1.8,,did not cause apparent inhibition,
CN1C(=O)/C(=C/C(=O)c2ccccc2)c2ccccc21 [Compound 6],did not cause apparent inhibition,,14.7 ± 3.2,,did not cause apparent inhibition,
CCCCN1C(=O)/C(=C/C(C)=O)c2ccccc21 [Compound 4],decrease in TrxR activity in a dose-dependent manner,,8.6 ± 0.9,time-dependent oxidation of Trx,decrease in TrxR activity in a dose-dependent manner,
